According to article PMC11571207, “Stereorandomized Oncocins with Preserved Ribosome Binding and Antibacterial Activity” (Journal of Medicinal Chemistry, 2024):
Values after ≈ are worked out from the molar mass of the structure shown. Like-named read-outs stand apart in the source and are kept apart here. Non-standard residues stand in square brackets, D forms with d. Residues, ends and D or L forms follow the SMILES beside them. No end group written: not given here.

Tests used:
[1] = system: P. aeruginosa PA14 4.13 (phoQ); settings: for MIC P. aeruginosa PA14 4.13 (phoQ), 12.5% MHB / MIC P. aeruginosa PA14 4.13 (phoQ), full MHB: polymyxin B resistant strain, 16–20 h at 37 °C; for MIC P. aeruginosa PA14 4.13 (phoQ), 12.5% MHB: 12.5% MHB pH 7.4; for MIC P. aeruginosa PA14 4.13 (phoQ), full MHB: full MHB pH 7.4; for MIC P. aeruginosa PA14 4.13: supplement CSV
[2] = system: P. aeruginosa PAO1; experiment: microbe, parasite or virus in culture; settings: for MIC P. aeruginosa, 12.5% MHB / MIC P. aeruginosa, Full MHB: P. aeruginosa PAO1, 16–20 h at 37 °C; for MIC P. aeruginosa, 12.5% MHB: 12.5% Müller–Hinton medium; for MIC P. aeruginosa, Full MHB: full Müller–Hinton medium; for MIC P. aeruginosa PAO1: supplement CSV
Summary of the method: (§1)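 Read-out was visible growth after MTT addition, the MIC being the lowest inhibitory peptide concentration. Bacteria grown to log phase in LB were exposed in MH medium to peptide from 64 μg/mL in twofold dilutions for 15-18h at 37°C.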

[3] = system: A. baumannii ATCC19606; experiment: microbe, parasite or virus in culture; settings: for MIC A. baumannii, 12.5% MHB / MIC A. baumannii, Full MHB: A. baumannii ATCC19606, 16–20 h at 37 °C; for MIC A. baumannii, 12.5% MHB: 12.5% Müller–Hinton medium; for MIC A. baumannii, Full MHB: full Müller–Hinton medium; for MIC A. baumannii ATCC19606: supplement CSV
Summary of the method: as §1

[4] = system: S. aureus COL (MRSA); experiment: microbe, parasite or virus in culture; settings: for MIC S. aureus, 12.5% MHB / MIC S. aureus, Full MHB: S. aureus COL (MRSA), 16–20 h at 37 °C; for MIC S. aureus, 12.5% MHB: 12.5% Müller–Hinton medium; for MIC S. aureus, Full MHB: full Müller–Hinton medium; for MIC S. aureus COL (MRSA): supplement CSV
Summary of the method: as §1

[5] = system: K. pneumoniae NCTC 418; experiment: microbe, parasite or virus in culture; settings: for MIC K. pneumoniae, 12.5% MHB / MIC K. pneumoniae, Full MHB: K. pneumoniae NCTC 418, 16–20 h at 37 °C; for MIC K. pneumoniae, 12.5% MHB: 12.5% Müller–Hinton medium; for MIC K. pneumoniae, Full MHB: full Müller–Hinton medium; for MIC K. pneumoniae NCTC418: supplement CSV
Summary of the method: as §1

[6] = system: E. coli W3110; experiment: microbe, parasite or virus in culture; settings: for MIC E. coli, 12.5% MHB / MIC E. coli, Full MHB: E. coli W3110, 16–20 h at 37 °C, broth microdilution; for MIC E. coli, 12.5% MHB: 12.5% Müller–Hinton medium; for MIC E. coli, Full MHB: full Müller–Hinton medium; for MIC E. coli W3110: supplement CSV
Summary of the method: as §1

[7] = system: human red blood cells; experiment: Hemolysis assay, minimum hemolytic concentration; settings: for Haemolysis on hRBC, MHC: 2.5% human red blood cells (final) in 10 mM phosphate, 150 mM NaCl, pH 7.4, 25 °C, 4 h, visual inspection; for MHC human red blood cells: supplement CSV

| Compound | MIC P. aeruginosa PA14 4.13 (phoQ), 12.5% MHB [1] | MIC P. aeruginosa PA14 4.13 (phoQ), full MHB [1] | MIC P. aeruginosa PA14 4.13 ([1]; 12.5% MH pH 7.4) [µg/mL] | MIC P. aeruginosa PA14 4.13 ([1]; full MH pH 7.4) [µg/mL] | MIC P. aeruginosa, 12.5% MHB [2] [µg/mL] | MIC P. aeruginosa, Full MHB [2] [µg/mL] | MIC P. aeruginosa PAO1 ([2]; 12.5% MH pH 7.4) [µg/mL] | MIC P. aeruginosa PAO1 ([2]; full MH pH 7.4) [µg/mL] | MIC A. baumannii, 12.5% MHB [3] [µg/mL] | MIC A. baumannii, Full MHB [3] [µg/mL] | MIC A. baumannii ATCC19606 ([3]; 12.5% MH pH 7.4) [µg/mL] | MIC A. baumannii ATCC19606 ([3]; full MH pH 7.4) [µg/mL] | MIC S. aureus, 12.5% MHB [4] | MIC S. aureus, Full MHB [4] | MIC S. aureus COL (MRSA) ([4]; 12.5% MH pH 7.4) [µg/mL] | MIC S. aureus COL (MRSA) ([4]; full MH pH 7.4) [µg/mL] | MIC K. pneumoniae, 12.5% MHB [5] | MIC K. pneumoniae, Full MHB [5] | MIC K. pneumoniae NCTC418 ([5]; 12.5% MH pH 7.4) [µg/mL] | MIC K. pneumoniae NCTC418 ([5]; full MH pH 7.4) [µg/mL] | other results |
| --- | --- | --- | --- | --- | --- | --- | --- | --- | --- | --- | --- | --- | --- | --- | --- | --- | --- | --- | --- | --- | --- |
| CC[C@@H](C)[C@@H](NC(=O)[C@@H](CCCNC(=N)N)NC(=O)[C@@H](CCCNC(=N)N)NC(=O)[C@H]1CCCN1C(=O)[C@H]1CCCN1C(=O)[C@@H](CCCNC(=N)N)NC(=O)[C@H]1CCCN1C(=O)[C@@H](CCCNC(=N)N)NC(=O)[C@H]1CCCN1C(=O)[C@@H](CC(C)C)NC(=O)[C@@H](Cc1ccc(O)cc1)NC(=O)[C@H]1CCCN1C(=O)[C@H]1CCCN1C(=O)[C@@H](CCCCN)NC(=O)[C@@H](CC(=O)O)NC(=O)[C@H](N)C(C)C)C(=O)N[C@H](Cc1ccc(O)cc1)C(=O)N[C@H](CC(N)=O)C(=O)N[C@H](CCCNC(=N)N)C(N)=O [D-Onc] (H-[dV][dD][dK][dP][dP][dY][dL][dP][dR][dP][dR][dP][dP][dR][dR][dI][dY][dN][dR]-NH2) | 16 µg/mL (≈ 6.69 µM) | > 64 µg/mL | 16 (≈ 6.69 µM) | >64 | 8 (≈ 3.35 µM) | > 64 | 8 (≈ 3.35 µM) | >64 | 16 (≈ 6.69 µM) | > 64 | 16 (≈ 6.69 µM) | >64 | >64 / 64 μg/mL | >64 / 64 μg/mL | 64 (≈ 26.8 µM) | >64 | > 16 µg/mL | > 64 µg/mL | >16 | >64 | MIC E. coli, 12.5% MHB [6]: 8 µg/mL (≈ 3.35 µM); MIC E. coli, Full MHB [6]: 32 µg/mL (≈ 13.4 µM); MIC E. coli W3110 ([6]; 12.5% MH pH 7.4): 8 µg/mL (≈ 3.35 µM); MIC E. coli W3110 ([6]; full MH pH 7.4): 32 µg/mL (≈ 13.4 µM); Haemolysis on hRBC, MHC [7]: >1000 µg/mL; MHC human red blood cells [7]: >1000 µg/mL |
| CC[C@H](C)[C@H](NC(=O)[C@H](CCCNC(=N)N)NC(=O)[C@H](CCCNC(=N)N)NC(=O)[C@@H]1CCCN1C(=O)[C@@H]1CCCN1C(=O)[C@H](CCCNC(=N)N)NC(=O)[C@@H]1CCCN1C(=O)[C@H](CCCNC(=N)N)NC(=O)[C@@H]1CCCN1C(=O)[C@@H](CC(C)C)NC(=O)[C@H](Cc1ccc(O)cc1)NC(=O)[C@@H]1CCCN1C(=O)[C@@H]1CCCN1C(=O)[C@H](CCCCN)NC(=O)[C@H](CC(=O)O)NC(=O)[C@@H](N)C(C)C)C(=O)N[C@@H](Cc1ccc(O)cc1)C(=O)N[C@@H](CC(N)=O)C(=O)N[C@@H](CCCNC(=N)N)C(N)=O [DL7-Onc] (H-VDKPPY[dL]PRPRPPRRIYNR-NH2) | >32/>32 μg/mL | >32/>32 μg/mL | >32 | >32 | > 16 | > 64 | >16 | >64 | > 16 | > 64 | >16 | >64 | >64 / >64 μg/mL | >64 / >64 μg/mL | >64 | >64 | > 16 µg/mL | > 64 µg/mL | >16 | >64 | MIC E. coli, 12.5% MHB [6]: 8 µg/mL (≈ 3.35 µM); MIC E. coli, Full MHB [6]: > 64 µg/mL; MIC E. coli W3110 ([6]; 12.5% MH pH 7.4): 8 µg/mL (≈ 3.35 µM); MIC E. coli W3110 ([6]; full MH pH 7.4): >64 µg/mL; Haemolysis on hRBC, MHC [7]: >1000 µg/mL; MHC human red blood cells [7]: >1000 µg/mL |
| CC[C@H](C)[C@H](NC(=O)[C@@H](CCCNC(=N)N)NC(=O)[C@H](CCCNC(=N)N)NC(=O)[C@@H]1CCCN1C(=O)[C@@H]1CCCN1C(=O)[C@H](CCCNC(=N)N)NC(=O)[C@@H]1CCCN1C(=O)[C@H](CCCNC(=N)N)NC(=O)[C@@H]1CCCN1C(=O)[C@H](CC(C)C)NC(=O)[C@H](Cc1ccc(O)cc1)NC(=O)[C@@H]1CCCN1C(=O)[C@@H]1CCCN1C(=O)[C@H](CCCCN)NC(=O)[C@H](CC(=O)O)NC(=O)[C@@H](N)C(C)C)C(=O)N[C@@H](Cc1ccc(O)cc1)C(=O)N[C@@H](CC(N)=O)C(=O)N[C@H](CCCNC(=N)N)C(N)=O [Onc112, reference compound] (H-VDKPPYLPRPRPPR[dR]IYN[dR]-NH2) | 16 µg/mL (≈ 6.69 µM) | > 32 µg/mL | 16 (≈ 6.69 µM) | >32 | 4 (≈ 1.67 µM) | 64 (≈ 26.8 µM) | 4 (≈ 1.67 µM) | 64 (≈ 26.8 µM) | 4 (≈ 1.67 µM) | 32 (≈ 13.4 µM) | 4 (≈ 1.67 µM) | 32 (≈ 13.4 µM) | 32 µg/mL (≈ 13.4 µM) | > 64 µg/mL | 32 (≈ 13.4 µM) | >64 | 2 µg/mL (≈ 0.837 µM) | 4 µg/mL (≈ 1.67 µM) | 2 (≈ 0.837 µM) | 4 (≈ 1.67 µM) | MIC E. coli, 12.5% MHB [6]: 2 µg/mL (≈ 0.837 µM); MIC E. coli, Full MHB [6]: 4 µg/mL (≈ 1.67 µM); MIC E. coli W3110 ([6]; 12.5% MH pH 7.4): 2 µg/mL (≈ 0.837 µM); MIC E. coli W3110 ([6]; full MH pH 7.4): 4 µg/mL (≈ 1.67 µM); Haemolysis on hRBC, MHC [7]: >1000 µg/mL; MHC human red blood cells [7]: >1000 µg/mL |
| VDKPPYLPRPRPPRRIYNR-NH2 [L-Onc, reference compound] | 16 µg/mL | > 64 µg/mL | 16 | >64 | 16 | > 64 | 16 | >64 | 4 | 32 | 4 | 32 | 32 µg/mL | > 64 µg/mL | 32 | >64 | 4 / 4 μg/mL | 4 / 4 μg/mL | 4 | 4 | MIC E. coli, 12.5% MHB [6]: 2 µg/mL; MIC E. coli, Full MHB [6]: 4 µg/mL; MIC E. coli W3110 ([6]; 12.5% MH pH 7.4): 2 µg/mL; MIC E. coli W3110 ([6]; full MH pH 7.4): 4 µg/mL; Haemolysis on hRBC, MHC [7]: >1000 µg/mL; MHC human red blood cells [7]: >1000 µg/mL |
| polymyxin B [PMB, reference compound] | 2/2 μg/mL | 2/2 μg/mL | 2 | 2 | 1 | 0.5 | 1 | 0.5 | 0.5 | 0.25 | 0.5 | 0.25 | >16 / 16 μg/mL | >16 / 16 μg/mL | 16 | >16 | 1 µg/mL | 0.5 µg/mL | 1 | 0.5 | MIC E. coli, 12.5% MHB [6]: 0.5 µg/mL; MIC E. coli, Full MHB [6]: 0.25 µg/mL; MIC E. coli W3110 ([6]; 12.5% MH pH 7.4): 0.5 µg/mL; MIC E. coli W3110 ([6]; full MH pH 7.4): 0.25 µg/mL |
